Data from ChEMBL document CHEMBL5653628, “Selective JAK3 Inhibitors with a Covalent Reversible Binding Mode Targeting a New Induced Fit Binding Pocket” (Cell Chem Biol, 2016).
One block for each compound: values may come before it. Calls of active or inactive are those of the source. The rule behind the calls is not given here.

How the values were obtained:
[1] = target: T1, Tyrosine-protein kinase JAK3 (Homo sapiens, UniProt P52333)
T1 sequence (P52333 whole entry): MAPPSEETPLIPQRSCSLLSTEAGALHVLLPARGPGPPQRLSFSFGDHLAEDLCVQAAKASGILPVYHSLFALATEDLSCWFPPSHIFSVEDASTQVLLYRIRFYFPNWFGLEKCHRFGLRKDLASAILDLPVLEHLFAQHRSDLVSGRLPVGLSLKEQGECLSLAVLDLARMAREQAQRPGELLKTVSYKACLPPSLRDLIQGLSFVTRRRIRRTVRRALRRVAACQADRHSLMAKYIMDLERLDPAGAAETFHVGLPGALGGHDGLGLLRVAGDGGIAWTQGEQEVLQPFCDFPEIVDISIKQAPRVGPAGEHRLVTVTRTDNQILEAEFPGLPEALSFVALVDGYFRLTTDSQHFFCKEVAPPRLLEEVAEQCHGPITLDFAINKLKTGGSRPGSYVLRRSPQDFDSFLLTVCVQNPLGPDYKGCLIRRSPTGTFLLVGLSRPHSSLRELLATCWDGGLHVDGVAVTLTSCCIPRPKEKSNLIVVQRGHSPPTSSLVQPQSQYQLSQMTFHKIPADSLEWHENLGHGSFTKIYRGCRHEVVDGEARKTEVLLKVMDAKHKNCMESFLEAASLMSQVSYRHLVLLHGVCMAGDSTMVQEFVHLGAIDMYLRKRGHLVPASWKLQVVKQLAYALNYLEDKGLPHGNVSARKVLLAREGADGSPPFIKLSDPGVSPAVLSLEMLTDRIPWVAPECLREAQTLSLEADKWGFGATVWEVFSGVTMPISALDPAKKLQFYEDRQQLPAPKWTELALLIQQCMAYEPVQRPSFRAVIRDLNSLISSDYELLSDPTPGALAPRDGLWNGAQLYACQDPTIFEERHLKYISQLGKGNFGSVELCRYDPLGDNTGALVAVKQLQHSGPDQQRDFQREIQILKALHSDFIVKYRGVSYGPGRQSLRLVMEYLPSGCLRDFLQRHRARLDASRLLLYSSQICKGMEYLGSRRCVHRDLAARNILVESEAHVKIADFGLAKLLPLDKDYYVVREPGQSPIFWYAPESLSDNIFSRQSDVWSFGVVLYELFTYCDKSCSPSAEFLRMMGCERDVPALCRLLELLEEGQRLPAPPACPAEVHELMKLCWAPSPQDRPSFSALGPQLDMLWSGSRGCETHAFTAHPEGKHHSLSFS
Description: Inhibition of JAK3 (unknown origin) in presence of ATP by radiometric assay

[2] = organism: Homo sapiens; experiment: Inhibition of AMPK (unknown origin) at 1 uM relative to control
[3] = target: Tyrosine-protein kinase ITK/TSK (Homo sapiens) (UniProt Q08881); details: dose 100.0 nM
Description: Inhibition of ITK (unknown origin) at 100 nM relative to control

[4] = target: Tyrosine-protein kinase JAK2 (Homo sapiens) (UniProt O60674); details: dose 100.0 nM
Description: Inhibition of JAK2 (unknown origin) at 100 nM relative to control

[5] = tested on: Leucine-rich repeat serine/threonine-protein kinase 2 (Homo sapiens), Q5S007 [G2019S]; details: dose 100.0 nM
[6] = tested on: Leucine-rich repeat serine/threonine-protein kinase 2 (Homo sapiens), Q5S007 [I2020T]; details: dose 100.0 nM
Leucine-rich repeat serine/threonine-protein kinase 2 (Homo sapiens), Q5S007 [I2020T], sequence (Q5S007 whole entry I2020T): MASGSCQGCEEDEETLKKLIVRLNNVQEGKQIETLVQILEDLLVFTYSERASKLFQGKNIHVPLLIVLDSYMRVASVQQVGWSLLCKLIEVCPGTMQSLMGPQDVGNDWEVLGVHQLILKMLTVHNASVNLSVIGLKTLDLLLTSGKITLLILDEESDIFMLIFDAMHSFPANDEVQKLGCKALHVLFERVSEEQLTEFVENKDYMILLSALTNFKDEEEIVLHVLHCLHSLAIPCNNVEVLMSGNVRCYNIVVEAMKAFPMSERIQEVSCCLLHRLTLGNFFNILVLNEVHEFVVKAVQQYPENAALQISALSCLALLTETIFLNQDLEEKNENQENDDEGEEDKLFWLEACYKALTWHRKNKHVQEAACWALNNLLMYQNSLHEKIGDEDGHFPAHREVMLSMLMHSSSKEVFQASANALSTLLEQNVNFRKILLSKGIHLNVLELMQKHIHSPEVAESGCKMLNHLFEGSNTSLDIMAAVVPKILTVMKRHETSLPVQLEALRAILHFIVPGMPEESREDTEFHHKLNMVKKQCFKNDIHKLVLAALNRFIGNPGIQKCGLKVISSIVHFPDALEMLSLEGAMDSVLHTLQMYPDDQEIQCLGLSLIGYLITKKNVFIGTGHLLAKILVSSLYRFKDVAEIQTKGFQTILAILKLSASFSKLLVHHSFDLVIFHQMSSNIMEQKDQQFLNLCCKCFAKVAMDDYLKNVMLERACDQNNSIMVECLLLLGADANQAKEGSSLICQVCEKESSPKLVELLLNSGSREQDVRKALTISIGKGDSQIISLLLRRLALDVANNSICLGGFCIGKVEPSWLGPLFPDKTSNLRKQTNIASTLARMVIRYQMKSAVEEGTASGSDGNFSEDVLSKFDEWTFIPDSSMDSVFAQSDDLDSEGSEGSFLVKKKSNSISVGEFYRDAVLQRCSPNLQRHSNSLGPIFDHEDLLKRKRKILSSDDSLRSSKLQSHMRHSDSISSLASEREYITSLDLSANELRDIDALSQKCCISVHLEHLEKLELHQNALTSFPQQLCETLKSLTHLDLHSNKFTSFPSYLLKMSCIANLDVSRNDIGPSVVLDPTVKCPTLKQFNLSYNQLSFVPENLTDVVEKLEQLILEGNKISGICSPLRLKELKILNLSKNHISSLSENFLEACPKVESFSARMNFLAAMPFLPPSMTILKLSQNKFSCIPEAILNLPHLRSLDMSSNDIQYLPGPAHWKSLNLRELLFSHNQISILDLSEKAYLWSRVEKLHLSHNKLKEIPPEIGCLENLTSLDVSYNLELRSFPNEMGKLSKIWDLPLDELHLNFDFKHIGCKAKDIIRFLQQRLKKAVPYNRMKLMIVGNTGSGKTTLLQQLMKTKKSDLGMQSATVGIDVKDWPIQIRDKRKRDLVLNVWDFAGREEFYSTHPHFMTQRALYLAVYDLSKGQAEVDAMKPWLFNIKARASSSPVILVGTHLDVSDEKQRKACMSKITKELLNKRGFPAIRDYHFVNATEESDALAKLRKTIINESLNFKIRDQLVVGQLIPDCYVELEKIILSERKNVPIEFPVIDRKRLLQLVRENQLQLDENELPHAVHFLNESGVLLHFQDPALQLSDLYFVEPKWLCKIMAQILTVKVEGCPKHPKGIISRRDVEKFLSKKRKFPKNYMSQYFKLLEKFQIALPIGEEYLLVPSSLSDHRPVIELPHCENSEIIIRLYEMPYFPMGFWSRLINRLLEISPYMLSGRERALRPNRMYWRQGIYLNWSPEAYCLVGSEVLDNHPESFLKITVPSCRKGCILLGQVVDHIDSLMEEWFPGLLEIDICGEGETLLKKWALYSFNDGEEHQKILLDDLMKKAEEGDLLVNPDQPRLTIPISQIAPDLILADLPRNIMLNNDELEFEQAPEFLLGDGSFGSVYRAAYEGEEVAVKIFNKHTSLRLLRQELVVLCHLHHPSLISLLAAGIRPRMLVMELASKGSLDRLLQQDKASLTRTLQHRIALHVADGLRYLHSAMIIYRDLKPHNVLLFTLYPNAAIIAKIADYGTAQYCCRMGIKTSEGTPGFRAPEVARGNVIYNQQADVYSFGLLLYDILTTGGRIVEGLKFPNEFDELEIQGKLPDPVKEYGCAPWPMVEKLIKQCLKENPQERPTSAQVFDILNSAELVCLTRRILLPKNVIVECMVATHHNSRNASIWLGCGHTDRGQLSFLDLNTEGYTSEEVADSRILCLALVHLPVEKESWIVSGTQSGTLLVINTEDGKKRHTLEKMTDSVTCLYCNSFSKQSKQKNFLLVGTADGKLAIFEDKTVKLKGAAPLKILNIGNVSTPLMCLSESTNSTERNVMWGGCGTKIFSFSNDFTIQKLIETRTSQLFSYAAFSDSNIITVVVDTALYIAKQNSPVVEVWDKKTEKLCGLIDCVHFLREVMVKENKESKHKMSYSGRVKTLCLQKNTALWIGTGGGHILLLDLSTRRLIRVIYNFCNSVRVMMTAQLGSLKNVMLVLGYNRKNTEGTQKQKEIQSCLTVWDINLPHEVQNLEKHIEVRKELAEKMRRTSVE

[7] = target: Serine/threonine-protein kinase N2 (Homo sapiens) (UniProt Q16513); details: dose 100.0 nM
Description: Inhibition of PRK2 (unknown origin) at 100 nM relative to control

[8] = target: Protein kinase C beta type (Homo sapiens) (UniProt P05771); details: dose 100.0 nM
Description: Inhibition of PKC-beta2 (unknown origin) at 100 nM relative to control

[9] = tested on: Epidermal growth factor receptor (Homo sapiens), P00533 [UNDEFINED MUTATION]; details: dose 100.0 nM
Epidermal growth factor receptor (Homo sapiens), P00533 [UNDEFINED MUTATION], sequence (P00533 whole entry, looked up, stated change not applied): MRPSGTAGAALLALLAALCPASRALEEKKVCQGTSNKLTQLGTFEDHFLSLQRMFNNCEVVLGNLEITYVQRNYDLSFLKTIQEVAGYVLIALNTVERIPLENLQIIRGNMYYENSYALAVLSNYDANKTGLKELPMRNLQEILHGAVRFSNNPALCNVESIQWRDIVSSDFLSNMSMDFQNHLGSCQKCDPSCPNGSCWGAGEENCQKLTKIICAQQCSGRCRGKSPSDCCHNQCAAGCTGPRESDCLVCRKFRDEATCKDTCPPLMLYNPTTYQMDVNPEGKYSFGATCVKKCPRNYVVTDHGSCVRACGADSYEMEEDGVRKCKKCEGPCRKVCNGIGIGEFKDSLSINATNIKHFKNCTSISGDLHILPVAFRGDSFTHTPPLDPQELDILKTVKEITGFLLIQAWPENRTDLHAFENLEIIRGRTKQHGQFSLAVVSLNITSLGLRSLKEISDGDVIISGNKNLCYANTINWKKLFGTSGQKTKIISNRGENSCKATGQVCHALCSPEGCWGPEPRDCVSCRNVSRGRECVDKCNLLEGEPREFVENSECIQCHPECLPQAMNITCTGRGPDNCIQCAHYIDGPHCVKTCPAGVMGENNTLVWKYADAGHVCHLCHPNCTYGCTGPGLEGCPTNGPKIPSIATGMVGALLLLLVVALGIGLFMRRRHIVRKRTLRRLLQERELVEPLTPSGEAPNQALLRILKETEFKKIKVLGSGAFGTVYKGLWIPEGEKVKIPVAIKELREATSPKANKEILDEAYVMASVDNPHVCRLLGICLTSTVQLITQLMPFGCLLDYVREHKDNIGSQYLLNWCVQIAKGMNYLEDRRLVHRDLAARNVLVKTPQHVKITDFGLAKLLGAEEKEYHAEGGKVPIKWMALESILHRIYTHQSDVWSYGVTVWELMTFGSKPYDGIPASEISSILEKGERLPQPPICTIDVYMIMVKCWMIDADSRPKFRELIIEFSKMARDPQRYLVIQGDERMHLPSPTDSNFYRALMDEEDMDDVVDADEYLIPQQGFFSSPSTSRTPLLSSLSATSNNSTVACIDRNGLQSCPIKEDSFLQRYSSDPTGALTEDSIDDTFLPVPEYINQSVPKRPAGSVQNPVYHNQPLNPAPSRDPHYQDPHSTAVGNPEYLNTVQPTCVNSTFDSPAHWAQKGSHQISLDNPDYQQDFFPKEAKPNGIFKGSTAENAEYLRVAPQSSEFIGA
Description: Inhibition of EGFR d747-752/P753S double mutant (unknown origin) at 100 nM relative to control

[10] = target: T2, Tyrosine-protein kinase JAK3 (Homo sapiens) (UniProt P52333); details: dose 500.0 nM
T2 sequence (whole entry): T1 sequence (P52333 whole entry)
Description: Inhibition of JAK3 (unknown origin) at 500 nM relative to control

[11] = target: Tyrosine-protein kinase Blk (Homo sapiens) (UniProt P51451); details: dose 100.0 nM
Tyrosine-protein kinase Blk (Homo sapiens), sequence (P51451 2-505 limits assumed): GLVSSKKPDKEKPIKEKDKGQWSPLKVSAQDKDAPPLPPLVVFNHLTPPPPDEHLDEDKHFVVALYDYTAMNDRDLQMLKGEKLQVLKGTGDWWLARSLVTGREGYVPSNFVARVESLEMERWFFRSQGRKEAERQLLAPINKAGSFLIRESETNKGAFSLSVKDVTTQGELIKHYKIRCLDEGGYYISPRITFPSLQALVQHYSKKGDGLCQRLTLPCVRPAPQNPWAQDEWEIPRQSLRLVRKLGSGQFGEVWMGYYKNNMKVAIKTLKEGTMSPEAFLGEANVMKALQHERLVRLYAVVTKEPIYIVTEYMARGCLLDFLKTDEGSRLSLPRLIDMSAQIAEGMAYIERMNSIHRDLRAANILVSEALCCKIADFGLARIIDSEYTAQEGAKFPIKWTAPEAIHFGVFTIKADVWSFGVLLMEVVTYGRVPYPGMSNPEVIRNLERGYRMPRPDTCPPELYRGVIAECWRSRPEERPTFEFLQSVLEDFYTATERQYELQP
Description: Inhibition of BLK (unknown origin) at 100 nM relative to control

[12] = tested on: CD4+ve Th; details: Homo sapiens, dose <= 1000.0 nM, time 1.5 hrs
[13] = target: Misshapen-like kinase 1 (Homo sapiens) (UniProt Q8N4C8); details: dose 100.0 nM
Description: Inhibition of MINK1 (unknown origin) at 100 nM relative to control

[14] = target: T2, Tyrosine-protein kinase JAK3 (Homo sapiens); details: dose 100.0 nM
Description: Inhibition of JAK3 (unknown origin) at 100 nM relative to control

[15] = target: Vascular endothelial growth factor receptor 2 (Homo sapiens, UniProt P35968); details: dose 100.0 nM
Description: Inhibition of VEGFR2 (unknown origin) at 100 nM relative to control

[16] = target: MAP kinase-activated protein kinase 2 (Homo sapiens) (UniProt P49137); details: dose 100.0 nM
Description: Inhibition of MAPKAPK2 (unknown origin) at 100 nM relative to control

[17] = tested on: Leucine-rich repeat serine/threonine-protein kinase 2 (Homo sapiens), Q5S007 [R1441C]; details: dose 100.0 nM
[18] = tested on: Epidermal growth factor receptor (Homo sapiens), P00533 [UNDEFINED MUTATION]; details: dose 500.0 nM
Description: Inhibition of EGFR d747-752/P753S double mutant (unknown origin) at 500 nM relative to control

[19] = target: Protein kinase C delta type (Homo sapiens) (UniProt Q05655); details: dose 100.0 nM
Description: Inhibition of PKC-delta (unknown origin) at 100 nM relative to control

[20] = target: Non-receptor tyrosine-protein kinase TNK1 (Homo sapiens) (UniProt Q13470); details: dose 100.0 nM
Description: Inhibition of TNK1 (unknown origin) at 100 nM relative to control

[21] = cells; details: Homo sapiens, CD4+ve Th, 1.5 h, read-out: INH
[22] = target: Ribosomal protein S6 kinase alpha-2 (Homo sapiens) (UniProt Q15349); details: dose 100.0 nM
Description: Inhibition of RPS6KA2 (unknown origin) at 100 nM relative to control

[23] = target: Mitogen-activated protein kinase kinase kinase 11 (Homo sapiens) (UniProt Q16584); details: dose 100.0 nM
Description: Inhibition of MAP3K11 (unknown origin) at 100 nM relative to control

[24] = target: Mitogen-activated protein kinase kinase kinase kinase 2 (Homo sapiens) (UniProt Q12851); details: dose 100.0 nM
Description: Inhibition of MAP4K2 (unknown origin) at 100 nM relative to control

[25] = target: Ribosomal protein S6 kinase alpha-6 (Homo sapiens) (UniProt Q9UK32); details: dose 100.0 nM
Ribosomal protein S6 kinase alpha-6 (Homo sapiens), sequence (Q9UK32 whole entry): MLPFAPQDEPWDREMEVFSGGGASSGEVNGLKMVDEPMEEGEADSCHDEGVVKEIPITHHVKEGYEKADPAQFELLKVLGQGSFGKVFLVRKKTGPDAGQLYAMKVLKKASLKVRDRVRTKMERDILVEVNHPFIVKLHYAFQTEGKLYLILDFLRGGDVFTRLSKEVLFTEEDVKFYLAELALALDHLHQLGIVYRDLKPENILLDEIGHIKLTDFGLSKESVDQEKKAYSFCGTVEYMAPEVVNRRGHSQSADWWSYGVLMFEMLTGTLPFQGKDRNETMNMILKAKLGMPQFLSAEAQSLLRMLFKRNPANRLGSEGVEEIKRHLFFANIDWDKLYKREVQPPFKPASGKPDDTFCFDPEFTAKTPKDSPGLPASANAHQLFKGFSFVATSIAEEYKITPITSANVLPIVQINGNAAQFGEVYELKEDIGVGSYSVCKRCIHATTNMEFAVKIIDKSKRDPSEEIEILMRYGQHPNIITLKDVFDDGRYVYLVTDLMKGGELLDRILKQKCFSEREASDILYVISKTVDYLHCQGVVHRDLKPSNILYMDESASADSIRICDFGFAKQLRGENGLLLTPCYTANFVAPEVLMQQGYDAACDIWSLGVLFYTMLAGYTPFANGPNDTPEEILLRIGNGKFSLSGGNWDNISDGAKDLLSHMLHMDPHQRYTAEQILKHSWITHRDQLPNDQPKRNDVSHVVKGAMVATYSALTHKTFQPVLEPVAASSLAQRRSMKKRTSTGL
Description: Inhibition of RPS6KA6 (unknown origin) at 100 nM relative to control

[26] = target: MAP kinase-activated protein kinase 5 (Homo sapiens) (UniProt Q8IW41); details: dose 100.0 nM
Description: Inhibition of MAPKAPK5 (unknown origin) at 100 nM relative to control

[27] = target: Rho-associated protein kinase 1 (Homo sapiens) (UniProt Q13464); details: dose 100.0 nM
Description: Inhibition of ROCK1 (unknown origin) at 100 nM relative to control

[28] = tested on: CD4+ve Th; details: Homo sapiens, dose 50-100 nM, time 1.5 hrs
[29] = tested on: CD4+ve Th; details: Homo sapiens, dose <= 1000.0 nM, time 1.5 hrs; remark: listed apart in the source
[30] = cells; details: Homo sapiens, CD4+ve Th, 1.5 h, read-out: INH; remark: listed apart in the source
[31] = target: Muscle, skeletal receptor tyrosine-protein kinase (Homo sapiens) (UniProt O15146); details: dose 100.0 nM
Description: Inhibition of MUSK (unknown origin) at 100 nM relative to control

[32] = target: Leucine-rich repeat serine/threonine-protein kinase 2 (Homo sapiens) (UniProt Q5S007); details: dose 100.0 nM
Description: Inhibition of wild-type LRRK2 (unknown origin) at 100 nM relative to control

- IC50 [1]: 0.9 nM
SMILES: Cn1c(=O)n([C@@H]2CC[C@@H](O)c3ccccc32)c2cc(-n3cnc4ccc(C#N)cc43)ccc21

- IC50 [1]: 7 nM
SMILES: CN(C)C/C=C/C(=O)Nc1nc2cnc3[nH]ccc3c2n1C

- inhibition [2]: 67%
SMILES: CC(C)(C)[C@@H](NC(=O)c1c[nH]c2ncc(C3CC3)nc12)C(=O)N1CC(C#N)C1

- inhibition [3]: 52%
- inhibition [4]: 60%
- inhibition [5]: 48%
- inhibition [6]: 40%
- inhibition [7]: 48%
- inhibition [8]: 31%
- inhibition [9]: 100%
- inhibition [10]: 3%
- inhibition [11]: 57%
- inhibition [13]: 100%
- inhibition [14]: 3%
- inhibition [15]: 60%
- inhibition [16]: 60%
- inhibition [17]: 22%
- inhibition [18]: 100%
- inhibition [19]: 60%
- inhibition [20]: 51%
- inhibition [22]: 26%
- inhibition [23]: 49%
- inhibition [24]: 54%
- inhibition [25]: 40%
- inhibition [26]: 100%
- inhibition [27]: 61%
- inhibition [31]: 61%
- inhibition [32]: 34%
SMILES: CC1CCCCC1n1c(-c2ccc(C=C(C#N)C(=O)N(C)C)o2)nc2cnc3[nH]ccc3c21 (mixture of isomers)
- inhibition [12]: inactive
- inhibition at 0.3 µM [21]: 100%
- inhibition [28]: Active
- inhibition [29]: inactive
- inhibition at 0.3 µM [30]: 100%
